Experimental data reported in US4855290A (priority 1985, dated 1989).
Several values for one entry are separate records, joined by “and”; a condition that tells them apart may be missing. Equal entries are not always repeated. Entries after “also recorded” stand apart in the source; their conditions may differ. Where two headings read alike, the source gives them in different places.

Key:
[1] = molecular target: central muscarinic receptors (M1) (Rattus norvegicus, UniProt P08482); test: biochemical; assay type: binding; parameters: IC50^1 :IC50^2: unit not given beside the values
Chain of central muscarinic receptors (M1) (P08482 whole entry): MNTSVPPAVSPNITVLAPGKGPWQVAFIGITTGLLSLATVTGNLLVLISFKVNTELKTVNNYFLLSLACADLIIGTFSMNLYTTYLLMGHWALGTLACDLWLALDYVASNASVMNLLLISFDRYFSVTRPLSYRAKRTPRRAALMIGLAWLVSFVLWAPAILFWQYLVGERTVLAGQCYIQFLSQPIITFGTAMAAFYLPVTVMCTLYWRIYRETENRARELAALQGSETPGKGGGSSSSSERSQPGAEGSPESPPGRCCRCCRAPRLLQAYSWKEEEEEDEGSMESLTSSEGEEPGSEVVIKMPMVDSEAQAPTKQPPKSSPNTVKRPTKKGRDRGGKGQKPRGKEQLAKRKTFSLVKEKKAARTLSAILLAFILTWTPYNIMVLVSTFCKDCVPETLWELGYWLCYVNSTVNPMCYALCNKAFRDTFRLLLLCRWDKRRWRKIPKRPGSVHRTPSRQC

[2] = tested on: acetyl- and butyryl-cholinesterase; test: Resistance to cholinesterases; assay type: in vitro ADME
[3] = Acute oral toxicity of AF102B in rats; assay type: in vivo, rats (Charles River CD strain)
Description: The test material was prepared at various concentrations in saline and was administered at a constant volume-sosage of 5 ml./kg. Dosages were selected according to the availability of the test material. Mortality and signs of reaction to treatment were recorded during a 14-day period. Early decedents and surviving animals were subjected to necropsy on Day 15.

[4] = Acute toxicity in mice, ip; assay type: in vivo; conditions: 80 mg./kg.
[5] = assay type: in vivo, mice; conditions: for dose level for antinociceptive activity: mouse, in vivo
[6] = molecular target: central muscarinic receptors (M1 and M2); assay type: binding, rat
Guinea-pig ileum [7] = test: Guinea-pig ileum induced contractions
Description: Guinea-pig ileum induced contractions
*This dose is the IC50 for inhibiting acetylcholineinduced
contractions of the ileum.

[8] = parameters: species or system Male Sprague-Dawley rats; conditions: rat, in vivo
[9] = Morris Swimming Maze in AF64A- and CSF-injected rats; assay type: in vivo, male Sprague Dawley rats; conditions: ip
Description: 38 male Sprague Dawley rats (raised by Charles River) 5-6 months old with an average weight of 500 g. were used. The rats were housed in groups of 5 and were given free access to food and water. Testing was carried out in a round white metal tub 1.4 m. diameter and 0.4 m. deep. The tub was filled with water, made opaque by milk powder to the level of 18 cm. A platform of 12 cm. diameter and at a height of 16 cm. was placed in the tub 2 cm. below water level. The platform was covered with gauze to prevent the animal from slipping back into the water after reaching the platform.
Prior to testing, the rat was placed on the platform for 120 secs., placed gently into the water, facing the wall of the pool, at one of four starting locations (north, south, east or west) around the pool's perimeter. Within each block of four trials, each rat was started at each of the four starting locations, with the sequence of starting locations randomly selected. Testing was carried out on 2 consecutive days with each rat submitted daily to eight trials. During trials 1-12 the platform was located in the center of the south-east quadrant and during trials 13-16 the platform was transferred to the center of the north-west quadrant. If in a particular trial the rat found the platform, it was permitted to remain on it for 60 secs. before starting the next trial. […] The latency to find the platform was measured.
For drug testing, rats were injected with AF64A or CSF (3 nmole/2 ul/side) as described in Experiment 2, above. The rats were subjected first to a step-through learning procedure (see Experiment 1, above) and were 3-3.5 months after injection when tested in the water maze. The rats were divided into 4 groups; 18 CSF-injected rats were treated either with physostigmine (0.1 mg./kg. ip) (10 rats) or with saline (8 rats). 20 AF64A-injected rats were divided similarly. The rats were injected with physostigmine immediately before testing on each day.
Forty male Sprague-Dawley rats (obtained from Charles River Breeding Laboratories U.K.), 5-6 months old, weighing 450-580 g. during the experiment served as subjects. Rats were housed in groups of 5 and were given free access to food and water. 2.5-3.5 months before behavioral testing, rats were injected with AF64A (3 nmole/2 ul/side) (20 rats-group 1) or CSF (20 rats-group 2) as described in the surgery procedure.
Each of the injected groups was randomly subdivided into two equal size treatment groups.

[10] = parameters: species or system Sprague Dawley rats; conditions: rat, in vivo, ip
[11] = Tremor induced by AF102B, mice; assay type: in vivo; conditions: ip
Description: (§1) rats; these effects are observed around the toxic doses of the compound

[12] = Tremor induced by AF102B, rats; assay type: in vivo
Description: as §1

[13] = mice
[14] = rats, ip
Guinea-pig ileum [15] = test: Guinea-pig ileum induced contractions; conditions: ileum contraction
in vivo [16] = conditions: mouse, po
in vivo [17] = conditions: mouse, iv
in vivo [18] = conditions: rat, ip
[19] = Hypothermia-inducing activity in rats
[20] = tested on: Salmonella typhimurium, strains TA-15365, TA-100, TA1538, TA-98 and TA-1537; test: Mutagenic activity (pour-plate assays)
[21] = mouse, icv; cited from earlier work
[22] = oxotremorine 0.5 mg./kg., ip; cited from earlier work
[23] = oxotremorine 0.5 mg./kg., ip; cited from earlier work; remark: listed apart in the source

Compound: CC1OC2(CS1)CN1CCC2CC1 (stereo not drawn) [(Ia), 2-methylspiro(1,3-oxathiolan-5,3')quinuclidine]
- pharmacological activity (muscarinic) [1]: muscarinic agonist with a high specificity for the central nervous system
- destruction by acetyl- and butyryl-cholinesterase [2]: not destroyed

Compound: C[C@H]1O[C@]2(CS1)CN1CCC2CC1 (relative stereo) [AF102B]
- deaths ([3]; oral): deaths occurred at all four dose-levels studied, within three hours 30 minutes after dosing
- necropsy observations ([3]; oral): a single case of haemorrhagic contents and occasional congested gastric mucosa was observed; also recorded: Necropsy of surviving animals did not reveal any abnormalities
- principal signs of reaction to treatment ([3]; oral): clonic convulsions, tremor, salivation, urogenital staining, diarrhoea and pigmented orbital secretion
- recovery and bodyweight of surviving animals ([3]; oral): all clinical signs of reaction to treatment were resolved by twenty four hours after dosing; also recorded: Surviving animals generally made expected bodyweight gains
- LD50 at 336 h ([3]; rat, in vivo, po): > 156 mg/kg
- death of mice [4]: All mice died
- antinociceptive effect at highest non-lethal doses ([5]; mice, 60 mg./kg. p.o. and 40 mg./kg. i.p., vs codeine phosphate and oxotremorine): not fully developed at 60 mg./kg. p.o. and 40 mg./kg. i.p; also recorded: remained obviously weaker than those of codeine phosphate and oxotremorine
- dose level for antinociceptive activity ([5]; ip): > 10 mg/kg
- dose level for antinociceptive activity ([5]; po): greater than 20 mg./kg.
- onset of action following per os administration ([5]; po, analgesia, hypothermia and lethal dose level tests): 10 to 15 min
- EC50 [1]: 0.4 µM
- IC50 [1]: 0.4 µM
- IC50^1 :IC50^2 ([1]; PNZ:QNB displacement ratio): 0.04
- IC50 ([6]; read-out: IC50^2 for displacement of [^3 H]-QNB): 10 µM
- EC50 ([6]; summary table, read-out: EC50, [^3 H]--QNB-binding): 10 µM
- muscarinic agonist activity (TABLES 1 and 2) (Guinea-pig ileum [7]; binding and ileum): potent muscarinic agonist
- Type of activity (Guinea-pig ileum [7]; guinea-pig ileum): agonist
- duration of action [8]: very long beneficial effect; also recorded: long duration of action
- retention latency during extinction+latent extinction [8]: No significant differences
- reversal of AF64A-induced memory impairments in passive avoidance [8]: could be reversed; also recorded: reverses memory impairments in AF64A-treated rats
- Initial latency ([8]; ip): 16.71 ± 4.77 s and 11.86 ± 1.23 s and 19.71 ± 5.39 s
- Initial-test latency ([8]; ip): 18.40 ± 3.74 s and 15.30 ± 2.83 s
- Retention-test latency ([8]; ip): 330.57 ± 75.55 s and 348.14 s and 551.71 s and 514.10 ± 38.21 s and 447.60 ± 58.09 s
- retention latency during extinction ([8]; ip): significantly longer, F(1,36)=31.45, p<0.01; also recorded: significantly improved; also recorded: increased from the first to the fourth trial and then decreased
- retention-test differences between doses ([8]; ip): no significant differences were found during the 24 hr. retention-test between the different doses of AF102B
- Retention-test latency ([8]; po): 524.55 ± 45.60 s and 600 s
- retention of passive avoidance (statistics) ([8]; po): significantly longer [F(1,35)=28.46; p<0.001]; also recorded: significantly improved; also recorded: no significant difference between the AF102B-treated-CSF-injected group and the saline-treated-CSF-injected group; also recorded: significantly longer [F(1,18)=65.71; p<0.001]; also recorded: that of the CSF-injected group did not significantly change
- effect in Morris Swimming Maze ([9]; AF102B 1 mg./kg., physostigmine 0.1 mg./kg.): counteracted; also recorded: reverses memory impairments in AF64A-treated rats; also recorded: definitely improved the memory deficits induced by AF64A; also recorded: significant decrease in escape latency
- effective dose, Morris Swimming Maze ([9]; AF64A rats): 1 mg/kg
- effect in 8-Arm Radial Maze [10]: counteracted; also recorded: reverses memory impairments in AF64A-treated rats; also recorded: improves AF64A-induced memory impairments; also recorded: significant (p<0.001, F=17.5) decrease in the mean number of errors; also recorded: improved performance only when rats were previously injected icv with AF64A; also recorded: memory impairment could be reversed
- effective dose, 8-Arm Radial Maze [10]: 5 mg/kg
- tremor-inducing dose [11]: 60 to 80 mg/kg
- tremor-inducing dose ([12]; ip): > 78 mg/kg
- tremor-inducing dose ([12]; po): > 100 mg/kg
- Mortality (mice, 64 mg./kg. per os): 0/5
- Mortality (mice, 71 mg./kg. per os): 0/5
- Mortality (mice, 80 mg./kg. per os): 2/5
- Mortality (mice, 90 mg./kg. per os): 2/5
- Mortality (mice, 101 mg./kg. per os): 3/5
- Mortality (mice, 113 mg./kg. per os): 4/5
- absorption by the enteric route (mice, inferred from i.v./oral LD50 ratio): efficient, rapid and apparently unaltered absorption
- LD50 (95% C.I.) (mice, oral): 92(74-116) mg./kg.
- Signs in reaction to treatment (mouse, in vivo): slightly enhanced intensity
- effects considered characteristic of parasympatho- or cholinomimetic activity (mouse, in vivo): none of the test animals exhibited effects considered characteristic of parasympatho- or cholinomimetic activity
- Mortality ([13]; 31 mg./kg. i.v.): 3/6
- Mortality ([13]; 33 mg./kg. i.v.): 1/6
- Mortality ([13]; 35 mg./kg. i.v.): 5/6
- Mortality ([13]; 37 mg./kg. i.v.): 6/6
- Mortality ([13]; 39 mg./kg. i.v.): 6/6
- LD50 (95% C.I.) ([13]; intravenous): 33(31-35) mg./kg.
- principal signs of reaction to treatment [14]: spastic and tonic convulsions, tremors, tachypnoea and dyspnoea, decreased motor activity, slight to very strong salivation and urination
- deaths ([14]; 20.0-187.0 mg./kg.): deaths occurred at the three highest dose levels (61, 107, 187 mg./kg.), within twenty minutes after dosing
- slope ([14]; acute toxicity curve): 83 °
- LD50 ([14]; 20160 min): 78 mg/kg
- EC50 (Guinea-pig ileum [15]): 4 µM
- LD50 (in vivo [16]): 92 mg/kg
- LD50 (in vivo [17]): 33 mg/kg
- LD50 at 336 h (in vivo [18]; LD50 (95% C.L.), rats): 77.6 mg/kg
- LD50 at 336 h (in vivo [18]; LD50, rats): 77.6 mg/kg
- cholinomimetic manifestation ([19]; AF102B at 80 mg./kg. p.o. and 60 mg./kg. i.p., oxotremorine 3.2 mg./kg. p.o. or 1.2 mg./kg. i.p.): Slight diarrhea was the single cholinomimetic manifestation
- dose level for hypothermia inducing activity ([19]; i.p.): > 15 mg/kg
- dose level for hypothermia inducing activity ([19]; p.o.): greater than 40 mg./kg.
- inhibition of growth ([20]; 1000 ug. per plate): No inhibition of growth
- mutagenic activity (reversion to prototrophy) ([20]; five strains, presence or absence of S-9 mix): No increases in reversion to prototrophy; also recorded: devoid of mutagenic activity; also recorded: not mutagenic up to high concentrations

Compound: CN1CCN(CC(=O)N2c3ccccc3C(=O)Nc3cccnc32)CC1 [PNZ, pirenzepine]
- minimum effective dose producing impaired passive avoidance learning [21]: 0.1 ug/mouse, icv
- dose required to reduce the effect of oxotremorine by 50%, tremor [22]: 5.8 ug/mouse, icv
- dose required to reduce the effect of oxotremorine by 50%, antinociception [23]: 4.6 ug/mouse, icv
